Values quoted from earlier work, collected in patent publication US6881426B2, “Echinacea angustifolia extracts” (priority 2002, dated 2005).

System: hyaluronidase

**Q.** For echinacoside, which hyaluronidase inhibition is on record?
**A.** inhibition
